Assay results reported in publication PMC11844072, “Novel 5,6-dichlorobenzimidazole derivatives as dual BRAFWT and BRAFV600E inhibitors: design, synthesis, anti-cancer activity and molecular dynamics simulations” (BMC Chemistry, 2025).

Experiments:
NCI-H322M [1] = assay: NCI 60 single concentration growth inhibition; format: cell-based, human; conditions: Non-small cell lung cancer, 10 μM
How it was run: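 Single-dose screen: cells in RPMI 1640 with 5% FBS and 2 mM L-glutamine, pre-grown 24 h, then exposed to 10 µM compound for 48 h at 37 °C. Protein was measured by TCA fixation and sulforhodamine B staining at 515 nm, and percent growth was taken against time-zero and untreated wells.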

U251 = assay: NCI 5-dose assay; format: cell-based; conditions: Homo sapiens, U-251; U251, CNS cancer
Description: (§1) The synthesized dichlorobenzimidazoles 10a–p were assayed for their influence on divers cancer cell lines according to the method presented in the Additional file A.
(§2) 5. Screening of cytotoxic activity against a panel of sixty human tumor cell lines
(§3) The selected compounds by NCI were evaluated for their anticancer activity in a two-stage process. First, these compounds were screened against the full NCI 60 cell lines panel at a single high dose of 10 µM. Then, the output from the single dose screen is reported as a mean graph. […]
(§4) at five different minimal concentrations.
(§5) Assay protocol. The human tumor cell lines of the cancer screening panel are grown in RPMI 1640 medium containing 5% fetal bovine serum and 2 mM L-glutamine. For a typical screening experiment, cells are inoculated into 96 well microtiter plates in 100 µL at plating densities ranging from 5000 to 40,000 cells/well depending on the doubling time of individual cell lines. After cell inoculation, the microtiter plates are incubated at 37 °C, 5% CO 2, 95% air and 100% relative humidity for 24 h prior to addition of the experimental drugs.
(§6) After 24 h, two plates of each cell line are fixed in situ with TCA, to represent a measurement of the cell population for each cell line at the time of drug addition (Tz). The experimental drugs are solubilized in dimethyl sulfoxide at 400-fold the desired final maximum test concentration and stored frozen prior to use. At the time of drug addition, an aliquot of frozen concentrate is thawed and diluted to twice the desired final maximum test concentration with complete medium containing 50 µg/mL gentamicin. Additional four, 10-fold or ½ log serial dilutions are made to provide a total of five drug concentrations plus control.
(§7) Aliquots of […] of these different drug dilutions are added to the appropriate microtiter wells already containing […] of medium, resulting in the required final drug concentrations.
(§8) Following drug addition, the plates are incubated for an additional 48 h at 37 °C, 5% CO 2, 95% air, and 100% relative humidity. For adherent cells, the assay is terminated by the addition of cold TCA.
(§9) Cells are fixed in situ by the gentle addition of 50 µL of cold 50% (w/v) TCA (final concentration, 10% TCA) and incubated for 60 min at 4 °C. The supernatant is discarded, and the plates are washed five times with tap water and air dried. Sulforhodamine B (SRB) solution ([…]) at 0.4% (w/v) in 1% acetic acid is added to each well, and plates are incubated for 10 min at room temperature. After staining, unbound dye is removed by washing five times with 1% acetic acid and the plates are air dried. Bound stain is subsequently solubilized with 10 mM trizma base, and the absorbance is read on an automated plate reader at a wavelength of 515 nm. For suspension cells, the methodology is […]
(§10) the same except that the assay is terminated by fixing settled cells at the bottom of the wells by gently adding 50 µl of 80% TCA (final concentration, 16% TCA). Using the seven absorbance measurements [time zero, (Tz), control growth, (C), and test growth in the presence of drug at the five concentration levels (Ti)], the percentage growth is calculated at each of the drug concentrations […]
(§11) Percentage growth inhibition is calculated as: [(Ti Tz)/(C–Tz)] x 100 for concentrations for which Ti>/=Tz and [(Ti-Tz)/Tz] x 100 for concentrations for which Ti < Tz.
(§12) Three dose response parameters are calculated for each experimental agent. Growth […]
(§13) concentration resulting in a 50% reduction in the net protein increase (as measured by SRB staining) in control cells during the drug incubation. The drug concentration resulting in total growth inhibition (TGI) is calculated from Ti = Tz. […]
(§14) reduction in the measured protein at the end of the drug treatment as compared to that at the beginning) indicating a net loss of cells following treatment is calculated from [(Ti–Tz)/Tz] x 100 =
(§15) _50. Values are calculated for each of these three parameters if the level of activity is reached; […]

DU-145 = assay: NCI 5-dose assay; format: cell-based; conditions: Homo sapiens; DU-145, Prostate cancer
Description: as §1, §2, §3, §4, §5, §6, §7, §8, §9, §10, §11, §12, §13, §14, §15

SR = assay: NCI 5-dose assay; format: cell-based; conditions: Homo sapiens, Leukemia
Description: as §1, §2, §3, §4, §5, §6, §7, §8, §9, §10, §11, §12, §13, §14, §15

HS 578T = assay: NCI 5-dose assay; format: cell-based; conditions: Homo sapiens, Breast cancer
Description: as §1, §2, §3, §4, §5, §6, §7, §8, §9, §10, §11, §12, §13, §14, §15

HCT-15 = assay: NCI 5-dose assay; format: cell-based; conditions: Homo sapiens; HCT-15, Colon cancer
Description: as §1, §2, §3, §4, §5, §6, §7, §8, §9, §10, §11, §12, §13, §14, §15

T-47D = assay: NCI 5-dose assay; format: cell-based; conditions: Homo sapiens, T47D, Breast cancer
Description: as §1, §2, §3, §4, §5, §6, §7, §8, §9, §10, §11, §12, §13, §14, §15

A498 = assay: NCI 5-dose assay; format: cell-based; conditions: Homo sapiens; A498, Renal cancer
Description: as §1, §2, §3, §4, §5, §6, §7, §8, §9, §10, §11, §12, §13, §14, §15

NCI-H460 = assay: NCI 5-dose assay; format: cell-based; conditions: Homo sapiens; NCI-H460, Non-small cell lung cancer
Description: as §1, §2, §3, §4, §5, §6, §7, §8, §9, §10, §11, §12, §13, §14, §15

SN12C = assay: NCI 5-dose assay; format: cell-based; conditions: Homo sapiens, Renal cancer
Description: as §1, §2, §3, §4, §5, §6, §7, §8, §9, §10, §11, §12, §13, §14, §15

PC-3 = assay: NCI 5-dose assay; format: cell-based; conditions: Homo sapiens; PC-3, Prostate cancer
Description: as §1, §2, §3, §4, §5, §6, §7, §8, §9, §10, §11, §12, §13, §14, §15

ACHN = assay: NCI 5-dose assay; format: cell-based; conditions: Homo sapiens, Renal cancer
Description: as §1, §2, §3, §4, §5, §6, §7, §8, §9, §10, §11, §12, §13, §14, §15

SF-539 = assay: NCI 5-dose assay; format: cell-based; conditions: Homo sapiens; SF-539, CNS cancer
Description: as §1, §2, §3, §4, §5, §6, §7, §8, §9, §10, §11, §12, §13, §14, §15

HOP-92 = assay: NCI 5-dose assay; format: cell-based; conditions: Homo sapiens; HOP-92, Non-small cell lung cancer
Description: as §1, §2, §3, §4, §5, §6, §7, §8, §9, §10, §11, §12, §13, §14, §15

SK-MEL-2 = assay: NCI 5-dose assay; format: cell-based; conditions: Homo sapiens; SK-MEL-2, Melanoma
Description: as §1, §2, §3, §4, §5, §6, §7, §8, §9, §10, §11, §12, §13, §14, §15

NCI-H322M [2] = assay: NCI 5-dose assay; format: cell-based; conditions: Homo sapiens, Non-small cell lung cancer
Description: as §1, §2, §3, §4, §5, §6, §7, §8, §9, §10, §11, §12, §13, §14, §15

SK-MEL-28 = assay: NCI 5-dose assay; format: cell-based; conditions: Homo sapiens; SK-MEL-28, Melanoma
Description: as §1, §2, §3, §4, §5, §6, §7, §8, §9, §10, §11, §12, §13, §14, §15

NCI/ADR-RES = assay: NCI 5-dose assay; format: cell-based; conditions: Homo sapiens, Ovarian cancer
Description: as §1, §2, §3, §4, §5, §6, §7, §8, §9, §10, §11, §12, §13, §14, §15

SK-MEL-5 = assay: NCI 5-dose assay; format: cell-based; conditions: Homo sapiens; SK-MEL-5, Melanoma
Description: as §1, §2, §3, §4, §5, §6, §7, §8, §9, §10, §11, §12, §13, §14, §15

SW-620 = assay: NCI 5-dose assay; format: cell-based; conditions: Homo sapiens; SW-620, Colon cancer
Description: as §1, §2, §3, §4, §5, §6, §7, §8, §9, §10, §11, §12, §13, §14, §15

| Compound | GI% (NCI-H322M [1]) | GI50 (U251) | GI50 (DU-145) | GI50 (SR) | GI50 (HS 578T) | GI50 (HCT-15) | GI50 (T-47D) | GI50 (A498) | GI50 (NCI-H460) | GI50 (SN12C) | GI50 (PC-3) | GI50 (ACHN) | GI50 (SF-539) | GI50 (HOP-92) | GI50 (SK-MEL-2) | GI50 (NCI-H322M [2]) | GI50 (SK-MEL-28) | GI50 (NCI/ADR-RES) | GI50 (SK-MEL-5) | GI50 (SW-620) |
| --- | --- | --- | --- | --- | --- | --- | --- | --- | --- | --- | --- | --- | --- | --- | --- | --- | --- | --- | --- | --- |
| 2-(4-((2-(2-(5,6-Dichloro-2-(4-methoxyphenyl)-1H-benzo[d]imidazol-1-yl)acetyl)hydrazono)methyl) -2-methoxyphenoxy)acetic acid [Compound 10m] | – (GI% < 5%) |  |  |  |  |  |  |  |  |  |  |  |  |  |  |  |  |  |  |  |
| 2-(5-((2-(2-(5,6-Dichloro-2-(4-methoxyphenyl)-1H-benzo[d]imidazol-1-yl)acetyl)hydrazono)methyl)-2-methoxyphenoxy)acetic acid [Compound 10n] | – (GI% < 5%) |  |  |  |  |  |  |  |  |  |  |  |  |  |  |  |  |  |  |  |
| 3-(4-((2-(2-(5,6-Dichloro-2-(4-methoxyphenyl)-1H-benzo[d]imidazol-1-yl)acetyl)hydrazono)methyl)phenoxy)propanoic acid [Compound 10i] | – (GI% < 5%) |  |  |  |  |  |  |  |  |  |  |  |  |  |  |  |  |  |  |  |
| COc1ccc(-c2nc3cc(Cl)c(Cl)cc3n2CC(=O)NN=Cc2cccc(OCC(=O)O)c2)cc1 [Compound 10e, 2-(3-((2-(2-(5,6-Dichloro-2-(4-methoxyphenyl)-1H-benzo[d]imidazol-1-yl)acetyl)hydrazono)methyl)phenoxy)acetic acid] | – (GI% < 5%) |  |  |  |  |  |  |  |  |  |  |  |  |  |  |  |  |  |  |  |
| COC(=O)COc1ccc(C=NNC(=O)Cn2c(-c3ccc(OC)cc3)nc3cc(Cl)c(Cl)cc32)cc1 [Compound 10h, Methyl-2-(4-((2-(2-(5,6-dichloro-2-(4-methoxyphenyl)-1H-benzo[d]imidazol-1-yl)acetyl)hydrazono)methyl)phenoxy)acetate] |  | 14.1 µM | 1.67 µM | 2.8 µM | 10.1 µM | 11.2 µM | 2.68 µM | 15.4 µM | > 82.5 µM | 2.95 µM | 4.45 µM | 7.84 µM | 10.7 µM | 11.4 µM | 10.5 µM | 21.3 µM | 11.7 µM | 5.22 µM | 80.9 µM | 22.2 µM |
| CCOC(=O)C(C)Oc1ccc(C=NNC(=O)Cn2c(-c3ccc(OC)cc3)nc3cc(Cl)c(Cl)cc32)cc1 (stereo not shown) [Compound 10j, Ethyl-2-(4-((2-(2-(5,6-dichloro-2-(4-methoxyphenyl)-1H-benzo[d]imidazol-1-yl)acetyl) hydrazono)methyl)phenoxy)propanoate] | – (GI% < 5%) |  |  |  |  |  |  |  |  |  |  |  |  |  |  |  |  |  |  |  |
| COc1ccc(-c2nc3cc(Cl)c(Cl)cc3n2CC(=O)NN=Cc2ccc(OC)c(O)c2)cc1 [Compound 10k, 2-(5,6-Dichloro-2-(4-methoxyphenyl)-1H-benzo[d]imidazol-1-yl)-N'-(3-hydroxy-4-methoxybenzylidene)acetohydrazide] | 8.94% |  |  |  |  |  |  |  |  |  |  |  |  |  |  |  |  |  |  |  |
| COC(=O)COc1cc(C=NNC(=O)Cn2c(-c3ccc(OC)cc3)nc3cc(Cl)c(Cl)cc32)ccc1OC [Compound 10o, Methyl-2-(5-((2-(2-(5,6-dichloro-2-(4-methoxyphenyl)-1H-benzo[d]imidazol-1-yl)acetyl)hydrazono)methyl)-2-methoxyphenoxy)acetate] | 11.69% | > 100 µM | 4.79 µM | 3 µM | 2.68 µM | > 100 µM | 12.7 µM | > 100 µM | > 100 µM | 7.92 µM | 17.2 µM | 14.2 µM | 5.28 µM | 23.6 µM | 21.6 µM | 60.4 µM | > 100 µM | 81.2 µM | > 100 µM | > 100 µM |
| COC(=O)COc1ccc(C=NNC(=O)Cn2c(-c3ccc(OC)cc3)nc3cc(Cl)c(Cl)cc32)cc1OC [Compound 10p, Methyl-2-(4-((2-(2-(5,6-dichloro-2-(4-methoxyphenyl)-1H-benzo[d]imidazol-1-yl)acetyl)hydrazono)methyl)-2-methoxyphenoxy)acetate] |  | > 72.5 µM | 1.9 µM | 2.15 µM | 4.34 µM | > 72.5 µM | 4.47 µM | 11.6 µM | 26.1 µM | 2.2 µM | 4.38 µM | 5.42 µM | 7.52 µM | 12.5 µM | 10 µM | 22.2 µM | > 72.5 µM | 3.05 µM | > 72.5 µM | > 72.5 µM |
